Assay results: patent US20030148970A1, “Methods for specifically inhibiting histone deacetylase-4” (priority 2001, published 2003)
d = 2'-deoxy (DNA); m = 2'-O-methyl

What was measured:
[1] = test system: human colon cancer HCT116 cells; assay: MTT assay of cell proliferation and cytotoxicity; type: cell-based; conditions: HCT-116, 48 hours
Protocol: Four thousand five hundred (4,500) human colon cancer HCT116 cells (ATCC, Manassas, Va. were used in an MTT (3-[4,5-dimethylthiazol-2-yl]-2,5 diphenyl tetrazolium bromide) assay to quantitatively determine cell proliferation and cytotoxicity. Typically, HCT116 cells were plated into each well of the 96-well tissue culture plate and left overnight to attach to the plate. Compounds at various concentrations (1 uM, 5 uM and 25 uM, in DMSO) were added in triplicate into the culture media (final DMSO concentration 1%) and incubated for 48 hours. MTT solution (obtained from Sigma as powder) was added and incubated with the cells for 4 hours at 37° C. in incubator with 5% CO2. During the incubation, viable cells convert MTT to a water-insoluble formazan dye. Solubilizing buffer (50% N,N-dimethylformamide, 20% SDS, pH 4.7) was added to cells and incubate for overnight at 37C in incubator with 5% CO2. Solubilized dye was quantitated by colorimetric reading at […] using a reference of […].

[2] = molecular target: T1, human HDAC-3 (Homo sapiens, UniProt O15379); assay: histone deacetylase enzyme assay, HDAC-3; type: biochemical
T1 construct: made in house; host or cells: insect cells (baculovirus expression system)
Protocol: (§1) The other HDAC isotypes, HDAC-3 and HDAC-4, were purified directly on an anti-Flag affinity column.
(§2) For the deacetylase assay, 20,000 cpm of an [^3H]-metabolically-labeled acetylated histone was used as a substrate. Histones were incubated with cloned recombinant human HDAC enzymes at 37° C. […] All assay conditions were pre-determined to be certain that each reaction was linear. Reactions were stopped by adding acetic acid (0.04 M final concentration) and HCl (250 mM, final concentration). The mixture was extracted with ethyl acetate, and the released [3H]-acetic acid was quantified by liquid scintillation counting. For the inhibition studies, HDAC enzyme was preincubated with test compounds for 30 minutes at 4° C. prior to the start of the enzymatic assay. IC50 values for HDAC enzyme inhibitors were identified with dose response curves for each individual compound and, thereby, obtaining a value for the concentration of inhibitor that produced fifty percent of the maximal inhibition.

[3] = molecular target: T2, human HDAC-4 (Homo sapiens, UniProt P56524); assay: histone deacetylase enzyme assay, HDAC-4; type: biochemical
T2 construct: Flag; made in house; host or cells: human embryonic kidney 293 cells (calcium phosphate transfection)
Protocol: Flag-tagged human HDAC-4 enzyme was produced in human embronic kidney 293 cells after transformation by the calcium phosphate precipitation method. Briefly, 293 cells were cultured in Dulbecco's Modified Eagle Medium (DMEM) containing 10% fetal bovine serum and antibiotics. Plasmid DNA encoding Flag-tagged human HDAC-4 was precipitated by ethanol and resuspend in sterile water. DNA-calcium precipitates, formed by mixing DNA, calcium choloride and 2×HEPES-buffered saline solution, were left on 293 cells for 12-16 hours. Cells were return to serum-contained DMEM medium and harvested at 48 hour post transfection for purification of Flag-tagged HDAC-4 enzyme.
as §1, §2

[4] = test system: p21; assay: p21 induction by small molecules; type: cell-based
[5] = test system: acetylated histone H-4 in T24 human bladder cancer cells; assay: inhibition of HDAC activity in whole cells (acetylated histone H-4 Western); type: cell-based; conditions: 16 hours
Protocol: T24 human bladder cancer cells (ATCC, Manassas, Va.) growing in culture were incubated with test compounds for 16 hours. Histones were extracted from the cells by standard procedures (see e.g. Yoshida et al., supra) after the culture period. Twenty μg total core histone protein was loaded onto SDS/PAGE and transferred to nitrocellulose membranes, which were then reacted with polyclonal antibody specific for acetylated histone H-4 (Upstate Biotech Inc., Lake Placid, […].). Horse Radish Peroxidase conjugated secondary antibody was used at a dilution of 1:5000 to detect primary antibody binding. The secondary antibody binding was visualized by use of the Enhanced chemiluminescence (ECL) detection kit (Amersham-Pharmacia Biotech., Inc., Piscataway, N.J.). After exposure to film, acetylated H-4 signal was quantitated by densitometry.

[6] = molecular target: T3, human HDAC-6 (Homo sapiens, UniProt Q9UBN7); assay: histone deacetylase enzyme assay, HDAC-6; type: biochemical
T3 construct: made in house; host or cells: insect cells (baculovirus expression system)
T3 sequence (Q9UBN7 1-1215): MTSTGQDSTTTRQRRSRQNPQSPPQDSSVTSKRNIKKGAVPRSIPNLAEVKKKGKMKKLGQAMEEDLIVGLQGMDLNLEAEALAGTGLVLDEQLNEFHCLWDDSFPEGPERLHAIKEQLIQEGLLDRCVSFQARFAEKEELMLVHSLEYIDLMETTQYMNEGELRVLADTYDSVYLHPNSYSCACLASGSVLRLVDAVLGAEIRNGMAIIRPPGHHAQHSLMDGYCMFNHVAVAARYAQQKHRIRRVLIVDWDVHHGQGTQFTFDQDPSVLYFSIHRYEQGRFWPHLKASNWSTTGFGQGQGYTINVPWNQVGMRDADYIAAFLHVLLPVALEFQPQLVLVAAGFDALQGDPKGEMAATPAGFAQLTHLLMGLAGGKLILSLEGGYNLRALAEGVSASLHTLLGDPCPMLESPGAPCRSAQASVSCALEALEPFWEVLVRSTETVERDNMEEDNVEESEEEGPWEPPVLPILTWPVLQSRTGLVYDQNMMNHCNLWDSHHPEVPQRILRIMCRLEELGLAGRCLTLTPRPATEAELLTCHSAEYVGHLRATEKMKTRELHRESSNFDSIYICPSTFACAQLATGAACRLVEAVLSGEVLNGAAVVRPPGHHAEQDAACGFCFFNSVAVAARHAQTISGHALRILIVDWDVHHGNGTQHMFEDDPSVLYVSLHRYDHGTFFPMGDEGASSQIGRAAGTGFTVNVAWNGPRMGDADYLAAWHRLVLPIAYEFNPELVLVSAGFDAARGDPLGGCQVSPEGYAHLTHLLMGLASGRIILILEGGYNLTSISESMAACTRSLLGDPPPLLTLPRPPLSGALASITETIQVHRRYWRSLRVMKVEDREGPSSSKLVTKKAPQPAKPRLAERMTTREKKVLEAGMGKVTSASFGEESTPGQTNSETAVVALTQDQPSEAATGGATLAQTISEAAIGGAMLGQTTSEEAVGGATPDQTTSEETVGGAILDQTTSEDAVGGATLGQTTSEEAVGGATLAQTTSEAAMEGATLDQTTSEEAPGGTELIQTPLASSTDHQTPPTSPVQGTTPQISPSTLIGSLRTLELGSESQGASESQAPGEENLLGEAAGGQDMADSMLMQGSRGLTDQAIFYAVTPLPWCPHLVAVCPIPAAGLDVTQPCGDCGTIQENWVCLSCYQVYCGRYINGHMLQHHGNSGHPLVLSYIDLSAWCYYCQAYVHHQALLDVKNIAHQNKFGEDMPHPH
Protocol: as §1, §2

[7] = cell cycle arrest; type: cell-based
[8] = molecular target: HDAC 2 (Homo sapiens, UniProt Q92769); assay: histone deacetylase enzyme assay, HDAC 2; type: biochemical
Protocol: as §2

[9] = test system: HDAC-4 mRNA; assay: Northern blot of HDAC-4 mRNA in A549 cells; type: cell-based, human; conditions: escalating doses (50 nM or 100 nM), 24 hours
Protocol: Human cancer A549 cells were treated with escalating doses of AS1, AS2 or MM2 oligos for 24 hours. Total RNAs were harvested for Northern analysis.
Briefly, human A549 and/or T24 human bladder carcinoma cells were seeded in 10 cm tissue culture dishes one day prior to oligonucleotide treatment. The cell lines were obtained from the American Type Culture Collection (ATCC) (Manassas, Va.) and were grown under the recommended culture conditions. Before the addition of the oligonucleotides, cells were washed with PBS (phosphate buffered saline). Next, lipofectin transfection reagent (GIBCO BRL Mississauga, Ontario, Calif.), at a concentration of 6.25 μg/ml, was added to serum free OPTIMEM medium (GIBCO BRL, Rockville, Md.), which was then added to the cells. The oligonucleotides to be screened were then added directly to the cells (i.e., one oligonucleotide per plate of cells). Mismatched oligonucleotides were used as controls. The same concentration of oligonucleotide (e.g., 50 nM) was used per plate of cells for each oligonucleotide tested.
Cells were harvested, and total RNAs were analyzed by Northern blot analysis. Briefly, total RNA was extracted using RNeasy miniprep columns (QIAGEN). Ten to twenty μg of total RNA was run on a formaldehyde-containing 1% agarose gel with 0.5 M sodium phosphate (pH 7.0) as the buffer system. […]

[10] = test system: human HDAC-4 protein; assay: Western blot of HDAC-4 protein in A549 cells; type: cell-based; conditions: 50 nM, 48 hours
Protocol: Human cancer A549 cells were treated with AS1, AS2 or MM2 oligos for 48 hours. Whole cell lysates were analyzed by Western blotting using antibodies specific against human HDAC4.
OSDN treatment conditions were as previously described.
Cells were lysed in buffer containing 1% Triton X-100, 0.5% sodium deoxycholate, 5 mM EDTA, 25 mM Tris-HCl, pH 7.5, plus protease inhibitors. Total protein was quantified by the protein assay reagent from Bio-Rad (Hercules, Calif.). 100 ug of total protein was analyzed by SDS-PAGE. Next, total protein was transferred onto a PVDF membrane and probed with various HDAC-specific primary antibodies. Rabbit anti-HDAC-1 (H-51), anti-HDAC-2 (H-54) antibodies (Santa Cruz Biotechnologies, Santa Cruz, Calif.) were used at 1:500 dilution. Rabbit anti-HDAC-3 antibody (Sigma, St. Louis, Mo.) was used at a dilution of 1:1000. Anti-HDAC-4 antibody was prepared as previously described (Wang, S. H. et al., (1999) Mol. Cell. Biol. 19:7816-27), and was used at a dilution of 1:1000. Anti-HDAC-6 antibody was raised by immunizing rabbits with a GST fusion protein containing a fragment of HDAC-6 protein (amino acid #990 to #1216, GenBank Accession No. AAD29048). Rabbit antiserum was tested and found only to react specifically to the human HDAC-6 isoform. HDAC-6 antiserum was used at 1:500 dilution in Western blots to detect HDAC-6 in total cell lysates. […]

[11] = test system: Human A549 cells; assay: cDNA array analysis of gene transcription; type: cell-based; conditions: A549, 50 nM, two days
Text: Fold change on transcriptions was compared to that of HDAC-4 mismatch oligo (MM2) treated cells;

[12] = test system: human colon cancer cells (HCT116); assay: tumor growth in a mouse model, colon; type: in vivo, BALB/c nude mice; conditions: 40 mg/kg body weight/day, i p; vs vehicle-treated mice
Protocol: Female BALB/c nude mice were obtained from Charles River Laboratories (Charles River, NY) and used at age 8-10 weeks. Human prostate tumor cells (DU145, 2×10^6) or human colon cancer cells (HCT116; 2×10^6) or small lung core A549 2×10^6 were injected subcutaneously in the animal's flank and allowed to form solid tumors. Tumor fragments were serially passaged a minimum of three times, then approximately 30 mg tumor fragments were implanted subcutaneously through a small surgical incision under general anaesthesia. Small molecule inhibitor administration by intraperotineal or oral administration was initiated when the tumors reached a volume of 100 mm^3. For intraperotineal administration, small molecule inhibitors of HDAC (40-50 mg/kg body weight/day) were dissolved in 100% DMSO and administered daily intraperitoneally by injection. For oral administration, small molecule inhibitors of HDAC (40-50 mg/kg body weight/days) were dissolved in a solution containing 65% polyethylene glycol 400 (PEG 400 (Sigma-Aldridge, Mississauga, Ontario, Calif., Catalogue No. P-3265), 5% ethanol, and 30% water. Tumor volumes were monitored twice weekly up to 20 days. Each experimental group contained at least 6-8 animals. Percentage inhibition was calculated using volume of tumor from vehicle-treated mice as controls.

T1 sequence (O15379 whole entry): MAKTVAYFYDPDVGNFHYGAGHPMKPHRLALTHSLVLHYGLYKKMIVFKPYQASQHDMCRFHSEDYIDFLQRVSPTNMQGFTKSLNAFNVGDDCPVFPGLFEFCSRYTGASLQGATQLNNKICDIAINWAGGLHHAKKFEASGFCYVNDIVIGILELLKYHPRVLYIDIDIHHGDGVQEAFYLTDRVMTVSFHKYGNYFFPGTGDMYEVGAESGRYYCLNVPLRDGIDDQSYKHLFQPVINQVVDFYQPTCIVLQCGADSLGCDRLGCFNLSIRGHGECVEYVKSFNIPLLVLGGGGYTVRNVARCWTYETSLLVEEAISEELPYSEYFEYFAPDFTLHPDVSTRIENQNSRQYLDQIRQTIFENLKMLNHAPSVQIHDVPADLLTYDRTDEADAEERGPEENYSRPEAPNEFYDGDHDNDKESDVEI
T2 sequence (P56524 whole entry): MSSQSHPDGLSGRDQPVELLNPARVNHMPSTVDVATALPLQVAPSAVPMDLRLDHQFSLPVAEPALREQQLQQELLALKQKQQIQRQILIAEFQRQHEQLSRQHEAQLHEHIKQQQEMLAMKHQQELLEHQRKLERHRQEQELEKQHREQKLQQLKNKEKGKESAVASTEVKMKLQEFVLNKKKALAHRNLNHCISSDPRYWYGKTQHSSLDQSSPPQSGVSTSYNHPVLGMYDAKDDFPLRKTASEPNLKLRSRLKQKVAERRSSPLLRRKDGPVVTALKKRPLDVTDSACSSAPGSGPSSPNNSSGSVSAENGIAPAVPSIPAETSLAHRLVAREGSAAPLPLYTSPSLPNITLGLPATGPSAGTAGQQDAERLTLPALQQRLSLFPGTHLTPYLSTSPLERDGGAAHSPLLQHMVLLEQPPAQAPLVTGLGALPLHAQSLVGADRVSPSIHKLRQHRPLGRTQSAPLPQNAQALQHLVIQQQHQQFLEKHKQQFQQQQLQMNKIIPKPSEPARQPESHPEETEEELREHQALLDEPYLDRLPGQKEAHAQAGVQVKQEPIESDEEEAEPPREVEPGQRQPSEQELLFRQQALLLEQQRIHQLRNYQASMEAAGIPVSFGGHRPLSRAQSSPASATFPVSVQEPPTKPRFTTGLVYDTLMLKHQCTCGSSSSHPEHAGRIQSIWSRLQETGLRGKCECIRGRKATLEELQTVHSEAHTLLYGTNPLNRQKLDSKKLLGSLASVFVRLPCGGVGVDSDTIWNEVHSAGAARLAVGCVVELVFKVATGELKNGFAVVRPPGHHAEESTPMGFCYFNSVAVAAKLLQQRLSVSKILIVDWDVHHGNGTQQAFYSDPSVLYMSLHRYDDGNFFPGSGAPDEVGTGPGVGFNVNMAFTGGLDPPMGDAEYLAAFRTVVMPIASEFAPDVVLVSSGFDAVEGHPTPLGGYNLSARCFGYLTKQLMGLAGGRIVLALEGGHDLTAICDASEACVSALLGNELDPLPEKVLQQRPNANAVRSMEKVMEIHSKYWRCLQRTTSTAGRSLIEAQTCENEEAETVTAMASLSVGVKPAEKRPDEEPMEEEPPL
HDAC 2, sequence (Q92769 whole entry): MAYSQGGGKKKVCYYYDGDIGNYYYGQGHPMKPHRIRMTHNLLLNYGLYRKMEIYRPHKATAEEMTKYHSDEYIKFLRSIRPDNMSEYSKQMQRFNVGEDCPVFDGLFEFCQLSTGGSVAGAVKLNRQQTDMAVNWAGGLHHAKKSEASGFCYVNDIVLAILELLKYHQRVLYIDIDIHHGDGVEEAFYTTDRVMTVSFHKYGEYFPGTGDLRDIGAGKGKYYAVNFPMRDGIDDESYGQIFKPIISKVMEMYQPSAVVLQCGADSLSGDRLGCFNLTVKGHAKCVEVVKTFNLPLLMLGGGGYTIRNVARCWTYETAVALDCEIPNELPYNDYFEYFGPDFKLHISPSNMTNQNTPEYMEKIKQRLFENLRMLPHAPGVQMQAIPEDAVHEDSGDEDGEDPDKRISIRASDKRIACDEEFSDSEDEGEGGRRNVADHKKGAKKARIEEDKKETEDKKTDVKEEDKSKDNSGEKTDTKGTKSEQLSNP

Row | IC50 [2] [µM] | IC50 [3] [µM] | IC50 [6] [µM] | IC50 [8] [µM] | Compound | IC50 [1] [µM] | p21 induction [4] [µM] | effective concentration for histone H4 acetylation [5] [µM] | cell cycle arrest EC [7] [µM] | expression of HDAC-4 mRNA (HDAC4 expression at RNA level) [9] | expression of HDAC-4 protein [10] | further results
1 | 18 | 13 | > 50 | 8 | Nc1ccccc1NC(=O)CCCCCCC(=O)c1ccc(-c2ccccc2)nc1 [MG 385 9] | 5 | 5 | 5 | 3 | – | – | –
2 | – | – | – | – | HDAC4 AS2: 5′-TACAGTCCATGCAACCTCCA-3′, antisense to human HDAC4 3′-UTR, AB006626 (sugars from the 5' end m4 d12 m4, all phosphorothioate, methylation of C and T or U not given here) | – | – | – | – | can inbibit HDAC4 expression at RNA level in a dose-dependent manner | can inbibit HDAC4 expression at protein level | –
3 | – | – | – | – | HDAC-4 AS1: 5′-GCTGCCTGCCGTGCCCACCC-3′, antisense to human HDAC4 5′-UTR, AB006626 (sugars from the 5' end m4 d12 m4, all phosphorothioate, methylation of C and T or U not given here) | – | – | – | – | can inbibit HDAC4 expression at RNA level in a dose-dependent manner | can inbibit HDAC4 expression at protein level | fold change, CDK4 ([11]; vs HDAC-4 mismatch oligo (MM2)): −3 fold; fold change, Egr-1 ([11]; vs HDAC-4 mismatch oligo (MM2)): 3 fold; fold change, GADD45 ([11]; vs HDAC-4 mismatch oligo (MM2)): 3 fold; fold change, GADD153 ([11]; vs HDAC-4 mismatch oligo (MM2)): 6 fold; fold change, IL-15 ([11]; vs HDAC-4 mismatch oligo (MM2)): 4 fold; fold change, IRF ([11]; vs HDAC-4 mismatch oligo (MM2)): 2 fold; fold change, Notch-4 ([11]; vs HDAC-4 mismatch oligo (MM2)): −3 fold; fold change, PLK ([11]; vs HDAC-4 mismatch oligo (MM2)): −4 fold; fold change, basic FGF ([11]; vs HDAC-4 mismatch oligo (MM2)): 2 fold; fold change, cyclin A2 ([11]; vs HDAC-4 mismatch oligo (MM2)): −3 fold; fold change, cyclin B1 ([11]; vs HDAC-4 mismatch oligo (MM2)): −3 fold; fold change, p21 ([11]; vs HDAC-4 mismatch oligo (MM2)): 4 fold; fold change, topo II α ([11]; vs HDAC-4 mismatch oligo (MM2)): −5 fold; number of genes with altered expression ([11]; out of 588 genes): 39 genes
4 | > 20 | 23 | > 50 | 4 | Nc1ccccc1NC(=O)CCCCCCC(=O)c1ccc(-c2ccccc2)cc1 [MG 365 0] | 5 | 10 | 10 | 9 | – | – | % inh. of tumor formation in vivo, colon [12]: 53 (40, i p) %
